Results: patent US20130123494A1, “COMPLEX COMPOUND AND OPTICAL RECORDING MEDIUM CONTAINING SAME” (KH NEOCHEM CO., LTD., priority 2010, published 2013)

Columns and labels:
Assay type in all cases: physicochemical
[1] = Test of storage stability in solution; conditions: 13 mg in 1 mL TFP, brown bottle, 25° C., 3 days; 1250-fold diluted for measurement
Description: Each of 13 mg of Complex Compounds (2) to (5), (7), (9) to (11), (13) to (21), (24), (26), (28), (30), (31), and (33) was dissolved in 1 mL of TFP, which was filtered with a filter made of TEFLON (registered trademark) (manufactured by Whatman, having a pore diameter of 0.20 μm), and solutions of Complex Compounds (2) to (5), (7), (9) to (11), (13) to (21), (24), (26), (28), (30), (31), and (33) were respectively obtained. Each of the obtained solutions was transferred to a brown bottle with a lid and stored at 25° C. for 3 days. Before and after the storage stability test, using a spectrophotometer, 1250-fold diluted solutions of Complex Compounds (2) to (5), (7), (9) to (11), (13) to (21), (24), (26), (28), (30), (31), and (33), respectively, were measured for their ultraviolet-visible absorption spectra. […] Here, the absorption maximum wavelength after the storage stability test is the absorption maximum wavelength in the absorption spectrum after the storage stability test.

[2] = Water resistance test of thin films; conditions: for I^d/I^d0 (absorbance ratio at absorption maximum after/before water resistance test) / Δλmax (d) (change in absorption maximum wavelength): thin film immersed in water at 75° C. for 30 minutes; for Water resistance of thin film (in words): thin film in water at 75° C. for 30 minutes
Description: Similarly to the film-forming test, thin films of Complex Compounds (2), (3), (13), (19), and (20) were respectively obtained. Ultraviolet-visible absorption spectra of the thin films were measured using a spectrophotometer before and after the water resistance test in which the thin films were immersed in water at 75° C. for 30 minutes. […] Here, the absorption maximum wavelength after the water resistance test denotes the absorption maximum wavelength in the absorption spectrum after the water resistance test. […] Here, the water resistance test is a test under severe conditions, and a thin film having the ratio (I^d/I^d0) of 0.5 or greater has favorable water resistance.

[3] = Lightfastness test of thin films; conditions: thin film on glass plate, UV fluorescent lamps 15 W/m^2, 45° C., 10 hours
Text: Thin films of Complex Compounds (2) to (5), (7), (9) to (11), (13) to (21), (24), (26), (28), (30), (31), and (33) were respectively obtained similarly to the film-forming test except that a glass plate (manufactured by Taiyu Kizai Co., Ltd.; 2 cm×2 cm; thickness: 2 mm) was used as the substrates instead of the plate made of polycarbonate resin. Using a dewpanel light control weather meter DPWL-5R, manufactured by Suga Test Instruments Co., Ltd., which was equipped with ultraviolet fluorescent lamps (SUGA-FS40, manufactured by Suga Test Instruments Co., Ltd., having a peak wavelength of 313 nm and an illuminance distribution of 282 nm to 373 nm), light was irradiated on the thin films with an amount of light of 15 W/m^2 at 45° C. for 10 hours. Ultraviolet-visible absorption spectra of the thin film before and after the lightfastness test were measured using a spectrophotometer.
Here, the absorption maximum wavelength after lightfastness test denotes an absorption maximum wavelength in the absorption spectrum after the lightfastness test.

[4] = Moisture- and heat-resistances test of thin films; conditions: thin film, 80° C., relative humidity 80%, 100 hours
Description: Similarly to the film-forming test, thin films of Complex Compounds (2) to (5), (7), (9) to (11), (13) to (21), (24), (26), (28), (30), (31), and (33) were respectively obtained. Using a constant temperature and humidity chamber, KHWII-40HP, manufactured by Satake Chemical Equipment Mfg Ltd., the thin films were exposed in the atmosphere having a temperature of 80° C. and a relative humidity of 80% for 100 hours. Ultraviolet-visible absorption spectra of the thin films before and after the moisture- and heat-resistances test were measured using a spectrophotometer. […] Here, the absorption maximum wavelength after the moisture- and heat-resistances test denotes the absorption maximum wavelength in an absorption spectrum after the moisture- and heat-resistances test.

SMILES | I^c/I^c0 (absorbance ratio at absorption maximum after/before storage stability test) [1] | Δλmax(c) (change in absorption maximum wavelength) [1] [nm] | I^d/I^d0 (absorbance ratio at absorption maximum after/before water resistance test) [2] | Δλmax (d) (change in absorption maximum wavelength) [2] [nm] | Water resistance of thin film (in words) [2] | I^a/I^a0 (absorbance ratio at absorption maximum after/before lightfastness test) [3] | I^b/I^b0 (absorbance ratio at absorption maximum after/before moisture- and heat-resistances test) [4] | Δλmax(b) (change in absorption maximum wavelength) [4] [nm]
CCCCn1c([O-])c(/C=N/[N-]c2nnnn2-c2ccccc2)c(C)c(C#N)c1=O.CCCCn1c([O-])c(/C=N/[N-]c2nnnn2-c2ccccc2)c(C)c(C#N)c1=O.CCCCn1c([O-])c(/C=N/[N-]c2nnnn2-c2ccccc2)c(C)c(C#N)c1=O.CCCCn1c([O-])c(/C=N/[N-]c2nnnn2-c2ccccc2)c(C)c(C#N)c1=O.Fc1cccc(-[n+]2ccc(-c3cc[n+](-c4cccc(F)c4)cc3)cc2)c1.[Co+3].[Co+3] [Complex Compound (2)] | 1.00 | 0 | 0.73 | 0.5 | superior water resistance | 0.92 | 0.97 | 0.5
Cc1c(/C=N/[N-]c2nnnn2-c2ccccc2)c([O-])n(CC(C)C)c(=O)c1C#N.Cc1c(/C=N/[N-]c2nnnn2-c2ccccc2)c([O-])n(CC(C)C)c(=O)c1C#N.Cc1c(/C=N/[N-]c2nnnn2-c2ccccc2)c([O-])n(CC(C)C)c(=O)c1C#N.Cc1c(/C=N/[N-]c2nnnn2-c2ccccc2)c([O-])n(CC(C)C)c(=O)c1C#N.[Co+3].[Co+3].c1ccc(-[n+]2ccc(-c3cc[n+](-c4ccccc4)cc3)cc2)cc1 [Complex Compound (13)] | 0.99 | 0 | 0.59 | 0.5 | superior water resistance | 0.87 | 0.99 | 0
Cc1c(/C=N/[N-]c2nnnn2-c2ccccc2)c([O-])n(CC(C)C)c(=O)c1C#N.Cc1c(/C=N/[N-]c2nnnn2-c2ccccc2)c([O-])n(CC(C)C)c(=O)c1C#N.Cc1c(/C=N/[N-]c2nnnn2-c2ccccc2)c([O-])n(CC(C)C)c(=O)c1C#N.Cc1c(/C=N/[N-]c2nnnn2-c2ccccc2)c([O-])n(CC(C)C)c(=O)c1C#N.FC(F)(F)c1cccc(-[n+]2ccc(-c3cc[n+](-c4cccc(C(F)(F)F)c4)cc3)cc2)c1.[Co+3].[Co+3] [Complex Compound (19)] | 0.99 | 0 | 0.76 | 0 | superior water resistance | 0.85 | 0.99 | 0
Cc1c(/C=N/[N-]c2nnnn2-c2ccccc2)c([O-])n(CC(C)C)c(=O)c1C#N.Cc1c(/C=N/[N-]c2nnnn2-c2ccccc2)c([O-])n(CC(C)C)c(=O)c1C#N.Cc1c(/C=N/[N-]c2nnnn2-c2ccccc2)c([O-])n(CC(C)C)c(=O)c1C#N.Cc1c(/C=N/[N-]c2nnnn2-c2ccccc2)c([O-])n(CC(C)C)c(=O)c1C#N.Fc1ccc(-[n+]2ccc(-c3cc[n+](-c4ccc(F)cc4)cc3)cc2)cc1.[Co+3].[Co+3] [Complex Compound (20)] | 1.00 | 0.5 | 0.59 | 0.5 | superior water resistance | 0.86 | 1.00 | 0.5
Cc1ccc(-n2c([O-])c(/C=N/[N-]c3nnnn3-c3ccccc3)c(C)c(C#N)c2=O)cc1.Cc1ccc(-n2c([O-])c(/C=N/[N-]c3nnnn3-c3ccccc3)c(C)c(C#N)c2=O)cc1.Cc1ccc(-n2c([O-])c(/C=N/[N-]c3nnnn3-c3ccccc3)c(C)c(C#N)c2=O)cc1.Cc1ccc(-n2c([O-])c(/C=N/[N-]c3nnnn3-c3ccccc3)c(C)c(C#N)c2=O)cc1.[Co+3].[Co+3].c1cc[n+]2c(c1)-c1cccc[n+]1CCC2 [Complex Compound (26)] | 1.01 | 0 |  |  |  | 0.88 | 1.00 | 0
CCCCn1c([O-])c(/C=N/[N-]c2nnnn2-c2ccccc2)c(CCC)c(C#N)c1=O.CCCCn1c([O-])c(/C=N/[N-]c2nnnn2-c2ccccc2)c(CCC)c(C#N)c1=O.CCCCn1c([O-])c(/C=N/[N-]c2nnnn2-c2ccccc2)c(CCC)c(C#N)c1=O.CCCCn1c([O-])c(/C=N/[N-]c2nnnn2-c2ccccc2)c(CCC)c(C#N)c1=O.[Co+3].[Co+3].c1cc2ccc3ccc[n+]4c3c2[n+](c1)CCC4 [Complex Compound (28)] | 0.99 | 0 |  |  |  | 0.88 | 0.99 | 0
Cc1c(/C=N/[N-]c2nnnn2-c2ccccc2)c([O-])n(Cc2ccccc2)c(=O)c1C#N.Cc1c(/C=N/[N-]c2nnnn2-c2ccccc2)c([O-])n(Cc2ccccc2)c(=O)c1C#N.Cc1c(/C=N/[N-]c2nnnn2-c2ccccc2)c([O-])n(Cc2ccccc2)c(=O)c1C#N.Cc1c(/C=N/[N-]c2nnnn2-c2ccccc2)c([O-])n(Cc2ccccc2)c(=O)c1C#N.[Co+3].[Co+3].c1cc[n+]2c(c1)-c1cccc[n+]1CCC2 [Complex Compound (30)] | 0.99 | 0 |  |  |  | 0.89 | 0.99 | 0
Cc1c(/C=N/[N-]c2nnnn2-c2ccccc2)c([O-])n(Cc2ccccc2)c(=O)c1C#N.Cc1c(/C=N/[N-]c2nnnn2-c2ccccc2)c([O-])n(Cc2ccccc2)c(=O)c1C#N.Cc1c(/C=N/[N-]c2nnnn2-c2ccccc2)c([O-])n(Cc2ccccc2)c(=O)c1C#N.Cc1c(/C=N/[N-]c2nnnn2-c2ccccc2)c([O-])n(Cc2ccccc2)c(=O)c1C#N.[Co+3].[Co+3].c1ccc(CC[N+]23CC[N+](CCc4ccccc4)(CC2)CC3)cc1 [Complex Compound (31)] | 1.02 | 0 |  |  |  | 0.85 | 1.00 | 0
Cc1c(/C=N/[N-]c2nc3ccccc3o2)c([O-])n(Cc2ccccc2)c(=O)c1C#N.Cc1c(/C=N/[N-]c2nc3ccccc3o2)c([O-])n(Cc2ccccc2)c(=O)c1C#N.Cc1c(/C=N/[N-]c2nc3ccccc3o2)c([O-])n(Cc2ccccc2)c(=O)c1C#N.Cc1c(/C=N/[N-]c2nc3ccccc3o2)c([O-])n(Cc2ccccc2)c(=O)c1C#N.[Co+3].[Co+3].c1cc[n+]2c(c1)-c1cccc[n+]1CCC2 [Complex Compound (33)] | 1.01 | 0 |  |  |  | 0.91 | 1.00 | 0
